Measurements taken from patent EP4663198A1, “COMPOSITION CONTAINING CYCLIC PEPTIDE COMPOUND AND SURFACTANT” (CHUGAI SEIYAKU KABUSHIKI KAISHA, priority 2023, dated 2024).

Conditions: Caco-2, pH 6.5

Papp A→B: 0.0525 ×10⁻⁶ cm/s
Compound: CCO[C@@H]1C[C@H]2C(=O)NC3(CCCC3)C(=O)N[C@@H](C3CCCC3)C(=O)N(C)[C@H](C(=O)N(C)C)CC(=O)N(C)[C@@H](CC(C)C)C(=O)N[C@@H]([C@@H](C)CC)C(=O)N(C)CC(=O)N(C)[C@H]3C/C=C\CCN(C3=O)[C@@H](Cc3ccc(C(F)(F)F)cc3)C(=O)N(C)CC(=O)N[C@@H](CCc3cc(F)c(C(F)(F)F)c(F)c3)C(=O)N2C1 [CP01, (2S,8S,12R,14S,20S,23S,27S,30S,36S,38Z)-20-cyclopentyl-8-[2-[3,5-difluoro-4-(trifluoromethyl)phenyl]ethyl]-12-ethoxy-27-isobutyl-N,N,4,22,26,32,35-heptamethyl-30-[(1S)-1-methylpropyl]-3,6,9,15,18,21,25,28,31,34,42-undecaoxo-2-[(4-(trifluoromethyl)phenyl]methyl]spiro[1,4,7,10,16,19,22,26,29,32,35-undecazatricyclo[34.5.1.0^10,14]dotetraconta-38-en-17,1'-cyclopentane]-23-carboxamide]
